TGI data for seven compounds are collected here from PubChem BioAssay (NCI).

Some test systems named below: SW-620 colon; KM12 colon; UACC-257 melanoma; HOP-92 NSCLC; K-562 leukemia; HCC-2998 colon; SF-295 CNS; RPMI-8226 leukemia; HT29 colon; SF-539 CNS; LOX IMVI melanoma; MALME-3M melanoma; SF-268 CNS; NCI/ADR-RES ovarian; MDA-N; OVCAR-5 ovarian; OVCAR-8 ovarian; 786-0 renal; HCT-116 colon.
What all share (assay): growth of human tumour cells (NCI), 48 h

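Cells were grown in 96-well plates and exposed to each compound for 48 hours at five concentrations; endpoints were interpolated linearly between bracketing concentrations, or set to the highest concentration if not reached. At the TGI there is no net growth.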

With `C=CC1C(OC2OC(CO)C(O)C(O)C2O)OC=C(C(=O)OC)C1CC1CC(=O)CC(CCc2ccc(O)cc2)O1` (stereo unspecified), the TGI in the assay with SW-620 colon, in the assay with KM12 colon, in the assay with UACC-257 melanoma, with HOP-92 NSCLC, in the assay on K-562 leukemia and in the assay on HCC-2998 colon was over 100 µM in each case. Further, the TGI in the assay with SF-295 CNS, in the assay on RPMI-8226 leukemia, in the assay with HT29 colon, with SF-539 CNS, in the assay with LOX IMVI melanoma and in the assay on MALME-3M melanoma was over 100 µM throughout. The TGI in the assay on SF-268 CNS, with NCI/ADR-RES ovarian, with MDA-N, in the assay with OVCAR-5 ovarian, in the assay on OVCAR-8 ovarian and with 786-0 renal was over 100 µM in each case. The same compound yielded a TGI in the assay with HCT-116 colon of over 100 µM.

As for `CCCCCCCCCCCCC/C=C/[C@@H](O)[C@H](COC1OC(CO)C(OC2OC(CO)C(O)C(OC3(C(=O)O)CC(O)C(NC(C)=O)C(C(O)C(O)CO)O3)C2O)C(O)C1O)N=[N+]=[N-]` (stereo partly specified), the TGI was 61.7 µM in the assay with SW-620 colon; 34.1 µM in the assay with KM12 colon; over 100 µM in the assay with UACC-257 melanoma; over 100 µM in the assay on HOP-92 NSCLC; 60.6 µM with K-562 leukemia; over 100 µM in the assay on HCC-2998 colon. Further, the TGI is 88 µM in the assay with SF-295 CNS; over 100 µM in the assay on RPMI-8226 leukemia; 58.5 µM in the assay on HT29 colon; 31.9 µM in the assay with SF-539 CNS; 36.6 µM in the assay with LOX IMVI melanoma; 55.5 µM with MALME-3M melanoma. Further, the TGI was 41.3 µM in the assay with SF-268 CNS; 59.9 µM in the assay with NCI/ADR-RES ovarian; over 100 µM in the assay with MDA-N; over 100 µM in the assay on OVCAR-5 ovarian; 44.9 µM with OVCAR-8 ovarian; over 100 µM in the assay on 786-0 renal. Further, the TGI in the assay on HCT-116 colon is over 100 µM.

For `Cc1cc2c(cc1C)C(=O)C1(C2)Cc2c(C)ccc(C)c2C1=O` (stereo unspecified), the TGI in the assay with SW-620 colon, with KM12 colon, with UACC-257 melanoma, in the assay with HOP-92 NSCLC, with K-562 leukemia and in the assay with HCC-2998 colon was over 100 µM throughout. Moreover, the TGI with SF-295 CNS, with RPMI-8226 leukemia, in the assay with SF-539 CNS, with LOX IMVI melanoma, in the assay on MALME-3M melanoma and with SF-268 CNS was over 100 µM in each case. Moreover, the TGI in the assay on NCI/ADR-RES ovarian, in the assay on MDA-N, in the assay on OVCAR-5 ovarian, in the assay on OVCAR-8 ovarian, in the assay on 786-0 renal and in the assay with HCT-116 colon was over 100 µM throughout.

Regarding `Cc1c(C)n(-c2ccccc2)c2nc(S(C)(=O)=O)nc(S(C)(=O)=O)c12`, the TGI in the assay with SW-620 colon stood at 2.9 µM; with KM12 colon, 28.2 µM; in the assay with UACC-257 melanoma it was 3.16 µM; in the assay with HOP-92 NSCLC, 3.2 µM; in the assay on K-562 leukemia, 2.95 µM; in the assay with HCC-2998 colon it was 41.2 µM. In addition, the TGI in the assay with SF-295 CNS is 31.1 µM; in the assay on RPMI-8226 leukemia it was 4.94 µM; in the assay on HT29 colon, 3.74 µM; in the assay on SF-539 CNS, 27 µM; in the assay on LOX IMVI melanoma, 3.43 µM; in the assay on MALME-3M melanoma, 2.92 µM. The TGI with SF-268 CNS worked out at 31.1 µM; with NCI/ADR-RES ovarian it was 59.9 µM; in the assay on MDA-N, 3.43 µM; in the assay with OVCAR-5 ovarian, 3.63 µM; in the assay with OVCAR-8 ovarian, 4.94 µM; in the assay with 786-0 renal, 2.55 µM. In the assay on HCT-116 colon, this compound displayed a TGI of 2.98 µM.

As to `Cc1cn(C2CC(O)C(CO[Si](C)(C)C(C)(C)C)OC2OC(C)C)c(=O)[nH]c1=O` (stereo unspecified), the TGI in the assay with SW-620 colon is over 100 µM; in the assay with KM12 colon, over 100 µM; with UACC-257 melanoma it was over 100 µM; with HOP-92 NSCLC it was 79.4 µM; in the assay with K-562 leukemia, over 100 µM; in the assay with HCC-2998 colon it was 62.7 µM. Moreover, the TGI with SF-295 CNS was over 100 µM; in the assay on RPMI-8226 leukemia it was 78.2 µM; with HT29 colon, 44.1 µM; with SF-539 CNS, 56.1 µM; with LOX IMVI melanoma, 32.5 µM; with MALME-3M melanoma, over 100 µM. The TGI was over 100 µM in the assay on SF-268 CNS; over 100 µM in the assay with NCI/ADR-RES ovarian; over 100 µM in the assay on MDA-N; over 100 µM in the assay on OVCAR-5 ovarian; 91.8 µM in the assay with OVCAR-8 ovarian; 31.6 µM with 786-0 renal. The compound further came in with a TGI in the assay with HCT-116 colon of 31.3 µM.

Consider `CCN1CCC(O)(/C=C/c2ccc(C)cc2)C(C(=O)/C=C/c2ccc(C)cc2)C1` (stereo unspecified), for which the TGI came out at 3.36 µM in the assay with SW-620 colon; 5.16 µM in the assay with KM12 colon; 25.5 µM with UACC-257 melanoma; 19.6 µM in the assay on HOP-92 NSCLC; 6.07 µM with K-562 leukemia; 5.08 µM in the assay on HCC-2998 colon. The TGI turned out to be 22.9 µM in the assay on SF-295 CNS; 10.8 µM in the assay on RPMI-8226 leukemia; 6.89 µM with HT29 colon; 10.3 µM with SF-539 CNS; 2.59 µM in the assay with LOX IMVI melanoma; 14.8 µM in the assay on MALME-3M melanoma. The TGI with SF-268 CNS came to 24.6 µM; in the assay with NCI/ADR-RES ovarian, 8.03 µM; with MDA-N it was 10.3 µM; in the assay with OVCAR-5 ovarian it was 23.2 µM; with OVCAR-8 ovarian, 7.54 µM; in the assay with 786-0 renal it was 4.29 µM. The compound also came in with a TGI in the assay on HCT-116 colon of 4.63 µM.

For `CNC(=S)N=Nc1c(O)n(CN2CCOCC2)c2ccc([N+](=O)[O-])cc12`, the TGI with SW-620 colon is over 100 µM; in the assay on KM12 colon, 97.9 µM; with UACC-257 melanoma, 77.6 µM; with HOP-92 NSCLC it was 43.9 µM; in the assay on K-562 leukemia, over 100 µM; in the assay on HCC-2998 colon it was 45.1 µM. Also, the TGI in the assay on SF-295 CNS was 53.4 µM; in the assay with RPMI-8226 leukemia, 50.5 µM; in the assay on HT29 colon, over 100 µM; with SF-539 CNS, 33.1 µM; in the assay on LOX IMVI melanoma it was 31.8 µM; in the assay with MALME-3M melanoma it was 43.3 µM. The TGI with SF-268 CNS was 47.5 µM; in the assay on NCI/ADR-RES ovarian, 38 µM; with MDA-N, over 100 µM; in the assay on OVCAR-5 ovarian, 70.5 µM; in the assay with 786-0 renal it was 28.7 µM; with HCT-116 colon, 28.7 µM.
